Kd data for two compounds are collected here from article doi:10.1101/2025.10.29.685286v1 (biorxiv, 2025).

This assay has as its target T1, NmGNAT (Nakamurella multipartita, UniProt C8XEF8).
T1 sequence (C8XEF8 1-164): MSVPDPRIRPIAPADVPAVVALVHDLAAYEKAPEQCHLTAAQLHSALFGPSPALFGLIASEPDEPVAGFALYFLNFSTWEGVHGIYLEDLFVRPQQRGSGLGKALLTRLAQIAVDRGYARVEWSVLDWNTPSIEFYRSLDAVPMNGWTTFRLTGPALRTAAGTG
As to the kind of experiment: microscale thermophoresis. Type of assay: binding. (In general: Microscale thermophoresis detects binding through changes in fluorescence in a small temperature gradient.)

For `CC(=O)SCCNC(=O)CCNC(=O)[C@H](O)C(C)(C)COP(=O)(O)OP(=O)(O)OC[C@H]1O[C@@H](n2cnc3c(N)ncnc32)[C@H](O)[C@@H]1OP(=O)(O)O` [acetyl-CoA], the dissociation constant (Kd) (as a rule, the equilibrium constant for the complex coming apart) was 18.9 ± 3.2 µM.
As for `NCCCC[C@H](N)C(=O)O` [lysine], the Kd stood at 137 ± 4.2 µM.
